Values joined by “and” are separate entries in the source; they are usually repeats but may differ in a detail not shown here. Equal entries are not always repeated.
Experiments:
[1] = system: S. aureus MN8; format: cell-based, Staphylococcus aureus
[2] = system: enzymes produced by S. aureus MN8; experiment: Breakdown of test compounds by enzymes produced by S. aureus MN8 (GC/MS and liquid chromatography of culture fluid); format: in vitro ADME, Staphylococcus aureus; conditions: Example 7; for GC/MS: concentration of the dominant compound over time / GC/MS: dominant compound found in the sample: culture fluid at 3, 6, 9 and 24 hours
Protocol: The test compounds, in the desired concentrations, were placed in 100 mL of a growth medium in a sterile, 500 mL Corning Fleaker (Fisher Scientific, Pittsbury, Pa.). The growth medium and inoculum were prepared as in Example 1.
The test compounds were added to the growth medium in the amount necessary to obtain the desired final concentration.
Each fleaker was inoculated with the amount of inoculum determined as described above. The fleakers were capped with sterile aluminum foil and incubated at 35° C. in atmospheric air in a Lab-Line orbital water bath (available from VWR Scientific Products, McGaw Park, Ill.) at 180 rpm. Fifteen milliliter samples were removed at 3, 6, 9, and 24 hours. The optical density (595 nm) of the culture fluid was determined and the culture fluid collected at 24 hours was assayed for the number of colony forming units of S. aureus MN8 using standard plate count procedures.
In preparation for analysis of the integrity of the test compounds, the culture fluid was centrifuged at 3000 rpm at 2-10° C. for 15 minutes. The supernatant was filter sterilized through an AUTOVIAL 5 syringeless filter, […] pore size (available from Whatman, Inc., Clifton, N.J.). The resulting fluid was frozen at −70° C. in a FISHERBRAND (12 mm×75 mm) polystyrene culture tube (Fisher Scientific, Pittsburgh, Pa.) until chemical analysis could be performed.
Using an Agilent Technologies 5973N GC/MS, analysis was performed on undiluted solutions at 3, 6, 9, and 24 hours to evaluate the ability of S. aureus MN8 to breakdown the test compounds. Based on the analysis, the control sample, which had no test compounds added, comprised mostly acetic acid at all time intervals.
Additional analysis of the 6 hour and 24 hour samples was conducted by liquid chromatography. In preparation for the chromatography, the samples were diluted 10 fold with water. The dilutions were then analyzed using an ion exclusion column to achieve the separation. Detection of the compounds was accomplished through UV absorbance at 230 nm.

[3] = system: TSST-1; format: cell-based, Staphylococcus aureus
[4] = system: TSST-1; format: cell-based, Staphylococcus aureus; remark: listed apart in the source

Compound	CFU/mL [1]	GC/MS: concentration of the dominant compound over time [2]	GC/MS: dominant compound found in the sample [2]	other results
CCCCCCCCCCCC(=O)OCc1ccccc1 [Benzyl laurate, Benzyl- laurate]	2.05E+08 CFU/mL and 3.05E+08 CFU/mL and 4.05E+08 CFU/mL and 3.80E+08 CFU/mL			
CC(C)CC(NC(=O)c1ccccc1)C(=O)O (racemic) [N-benzoyl-DL-leucine, N-Benzoyl-DL-Leucine]	2.23E+08 CFU/mL and 2.69E+08 CFU/mL	decreasing concentration over time	benzoic acid as the dominant compound	liquid chromatography: evidence of breakdown to the active species ([2]; 6 hour and 24 hour samples, UV 230 nm): breakdown to benzoic acid; ELISA: TSST-1 ng per mL [3]: 7.9 ng per mL and 14.6 ng per mL
OCc1ccccc1 [Benzyl alcohol, benzyl alcohol]	5.02E+08 CFU/mL and 7.52E+08 CFU/mL	decreased over time	benzyl alcohol	TSST-1 ng/mL [4]: 2.46 ng/mL and 2.22 ng/mL and 1.33 ng/mL; toxin production, pairwise statistical comparison [3]: significantly decreased toxin production
myreth-3-myristate [Cetiol 1414E]	1.75E+08 CFU/mL and 2.61E+08 CFU/mL and 2.48E+08 CFU/mL and 2.05E+08 CFU/mL			% Reduction [3]: 74% and 69% and 87%; ELISA: TSST-1 (% inhibition) [3]: (79%); ELISA: TSST-1 Nanograms/mL [3]: 61 Nanograms/mL; CFU/mL ×10^7 [1]: 22.5 CFU/mL ×10^7 and 25.6 CFU/mL ×10^7 and 17.4 CFU/mL ×10^7; inhibition of the growth of S. aureus, pairwise statistical comparison [1]: significantly greater inhibition of the growth of S. aureus
CC(C)C(NC(=O)c1ccccc1)C(=O)O (racemic) [N-benzoyl-DL-valine, N-Benzoyl-DL-Valine]	1.61E+08 CFU/mL and 2.07E+08 CFU/mL			
O=C(O)c1ccccc1 [benzoic acid]		decreased over time	benzoic acid	
